The experiment deals with T1, human TRPC6 (Homo sapiens, UniProt Q9Y210).
T1 construct: expressed in transfected cells
T1 sequence (Q9Y210 1-931): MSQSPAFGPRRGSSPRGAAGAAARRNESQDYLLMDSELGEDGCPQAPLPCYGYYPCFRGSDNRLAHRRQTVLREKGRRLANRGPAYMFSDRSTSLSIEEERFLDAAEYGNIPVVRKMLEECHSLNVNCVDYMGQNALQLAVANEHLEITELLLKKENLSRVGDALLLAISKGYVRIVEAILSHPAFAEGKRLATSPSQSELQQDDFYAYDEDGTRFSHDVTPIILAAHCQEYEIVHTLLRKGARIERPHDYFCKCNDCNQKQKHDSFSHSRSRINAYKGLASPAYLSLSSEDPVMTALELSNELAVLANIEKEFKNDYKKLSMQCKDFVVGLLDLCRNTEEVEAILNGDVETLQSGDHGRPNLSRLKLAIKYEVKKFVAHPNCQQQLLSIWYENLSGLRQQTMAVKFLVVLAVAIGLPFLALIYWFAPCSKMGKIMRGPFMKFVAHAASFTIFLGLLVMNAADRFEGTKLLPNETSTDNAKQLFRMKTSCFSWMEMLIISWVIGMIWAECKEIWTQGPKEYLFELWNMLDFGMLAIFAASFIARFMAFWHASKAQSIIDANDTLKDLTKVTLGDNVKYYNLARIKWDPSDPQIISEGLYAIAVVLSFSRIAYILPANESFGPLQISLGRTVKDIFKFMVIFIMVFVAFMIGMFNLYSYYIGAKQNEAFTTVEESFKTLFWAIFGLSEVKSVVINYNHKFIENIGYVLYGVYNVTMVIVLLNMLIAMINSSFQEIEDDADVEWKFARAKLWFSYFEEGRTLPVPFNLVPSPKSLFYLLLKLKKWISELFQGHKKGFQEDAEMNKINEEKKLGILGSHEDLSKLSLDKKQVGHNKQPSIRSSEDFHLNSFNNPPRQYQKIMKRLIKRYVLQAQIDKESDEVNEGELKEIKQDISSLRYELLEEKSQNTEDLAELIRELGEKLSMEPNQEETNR
In words: TRPC6 Calcium Flux Assay. As to conditions: inhibition of OAG-triggered calcium influx in HEK293 cells stably transfected with human TRPC6; FLIPR; 25 min compound preincubation; 50 uM OAG; read-out: hTRPC6 Potency. It is filed as cell-based. The procedure:
Potency of TRPC6 (Transient receptor potential channel family C6) inhibitors were measured by their inhibition of Calcium influx trigged by OAG (1-Oleoyl-2-acetyl-sn-glycerol, Millipore Sigma, O6754) stimulation on HEK293 cells stably transfected with human TRPC6 using a FLIPR tetra system (BD PBX Calcium Assay Kit; BD Biosciences, San Jose Calif.). Cells were grown in a humidified environment at 37° C. under 5% CO2 using the growth medium with the following selective reagents (Dulbecco's Modified Eagle's Medium (DMEM) high glucose, 10% Fetal Bovine Serum, 1×PSGlu (penicillin-streptomycin glutamine), 1×NEAA (Non-essential amino acid), 1×Na Pyruvate and 200 ug/ml Hygromycin). For general passage, cells were grown to 70-90% confluency; the media was removed, and the cells were gently washed 2 times with calcium and magnesium free PBS (phosphate-buffered saline). Trypsin (3 mL) was applied for 5 minutes at 37° C. The cells were dislodged by rapping flask against base of a hand and 7 mL of growth medium was added to deactivate trypsin and re-suspend cells. The usual splitting schedule was 1:5 every 2-3 days.
Cells were plated the day before the assay, plating cell density is 1.0-1.5×10^4/25 μl/well in poly-D-lysine (PDL) coated 384-well plates using either multichannel pipettes or multidrop. These cells were first incubated with fluorescence dye at room temperature for 90-120 minutes after they were grown on PDL-coated 384-well black plates overnight (Dye loading buffer 10 ml example: 9 mL assay buffer, 1 mL, 10×PBX signal enhancer, 10 μL Calcium indicator). The cells were incubated with a dose of compounds for 25 minutes before being stimulated with TRPC6 agonist OAG. The OAG solution was prepared by adding OAG into assay buffer (Ca ringer solution base: 10 mM HEPES (4-(2-hydroxyethyl)-1-piperazine-ethanesulfonic acid), 4 mM MgCl2, 120 mM NaCl, 5 mM KCl, pH=7.2 @25° C.)+0.1% BSA+2 mM CaCl2) to the concentration of 0.2 mM/2% DMSO, which achieves a final on cell concentration of 50 uM/0.5% DMSO. 12.5 uL OAG mixture was added and the activation of the TRPC6 channel was measured by the change of intracellular Calcium levels on FLIPR terra system.
Data was acquired by measuring the fluorescent peak signal subtracted from the background during the 180 second imaging frame. Each data point is further normalized to 100% of OAG triggered signal vs. buffer. Table 3 provides the IC50 for each compound, which data is obtained by plotting peak signal over the compound dose.
In general terms: A change in cytosolic calcium serves as a functional read-out for many receptors and channels.

As for `N[C@@H]1CN(c2nc3cc(F)ccc3n2Cc2ccc(F)cn2)CC[C@H]1F` (single isomer, unassigned) [Example 1], the IC50 turned out to be 0.7 nM.

On to `N[C@@H]1CN(c2nc3cc(F)cc(F)c3n2Cc2ccc(F)cn2)CCC1(F)F` (single isomer, unassigned) [Example 2], for which the IC50 worked out at 2.2 nM.

For the molecule `N[C@@H]1CN(c2nc3ccc(F)cc3n2Cc2ncc(F)cn2)CC[C@H]1F` (single isomer, unassigned) [Example 3], the IC50 came out at 0.2 nM.

For `N[C@@H]1CN(c2nc3ccc(F)cc3n2Cc2ccc(F)cn2)CC[C@H]1F` (single isomer, unassigned) [Example 4], the IC50 came to 0.4 nM.

For the molecule `N[C@@H]1CN(c2nc3cc(F)ccc3n2Cc2ccc(Cl)cn2)CCC1(F)F` (single isomer, unassigned) [Example 5], the IC50 came to 0.3 nM.

As for `N[C@@H]1CN(c2nc3ccc(F)cc3n2Cc2ncc(Cl)cn2)CCC1(F)F` (single isomer, unassigned) [Example 6], the IC50 stood at 1 nM.

In the case of `N[C@@H]1CN(c2nc3ccc(F)cc3n2Cc2ccc(F)cn2)CCC1(F)F` (single isomer, unassigned) [Example 7], the IC50 came to 22.9 nM.

With `COc1cnc(Cn2c(N3CC[C@@H](F)[C@H](N)C3)nc3c(F)cc(F)cc32)nc1` (single isomer, unassigned) [Example 9], the IC50 came out at 0.5 nM.

Regarding `N[C@@H]1CN(c2nc3ccc(F)cc3n2Cc2ccc(Cl)cn2)CCC1(F)F` (single isomer, unassigned) [Example 10], the IC50 was found to be 2.5 nM.

As for `N[C@@H]1CN(c2nc3cc(F)ccc3n2Cc2ncc(F)cn2)CC[C@H]1F` (single isomer, unassigned) [Example 11], the IC50 was determined as 0.4 nM.

On to `N[C@@H]1CN(c2nc3ccc(F)cc3n2Cc2ccc(Cl)cn2)CC[C@H]1F` (single isomer, unassigned) [Example 12, (3R.4R)-1-(1-((5-chloro-2-pyridinyl)methyl)-6-fluoro-1H-benzimidazol-2-yl)-4-fluoro-3-piperidinamine], for which the IC50 came to 1 nM.

`N#Cc1ccc2nc(N3CCC(F)(F)[C@H](N)C3)n(Cc3ccc(Cl)cn3)c2c1` (single isomer, unassigned) [Example 13]: the IC50 is 1.3 nM.

For the molecule `N[C@@H]1CN(c2nc3c(F)cc(F)cc3n2Cc2ncc(Cl)cn2)CCC1(F)F` (single isomer, unassigned) [Example 14], the IC50 is 1.2 nM.

Regarding `N#Cc1cc(F)cc2c1nc(N1CC[C@@H](F)[C@H](N)C1)n2Cc1ccc(F)cn1` (single isomer, unassigned) [Example 15], the IC50 stood at 1 nM.

On to `COc1cc(F)c2nc(N3CC[C@@H](F)[C@H](N)C3)n(Cc3ncc(Cl)cn3)c2c1` (single isomer, unassigned) [Example 21], for which the IC50 was determined as 0.4 nM.

Consider `Cc1ccc(Cn2c(N3CC[C@@H](F)[C@H](N)C3)nc3cc(F)c(F)cc32)nc1` [Example 8, (3R,4R)-1-(5,6-difluoro-1-((5-methyl-2-pyridinyl)methyl)-1H-benzimidazol-2-yl)-4-fluoro-3-piperidinamine], for which the IC50 turned out to be 0.1 nM.

Consider `N[C@@H]1CN(c2nc3cc(F)c(F)cc3n2Cc2ccc(Cl)cn2)CCC1(F)F` [Example 16, (3R)-1-(1-((5-chloro-2-pyridinyl)methyl)-5,6-difluoro-1H-benzimidazol-2-yl)-4,4-difluoro-3-piperidinamine], for which the IC50 was 0.6 nM.

On to `N[C@@H]1CN(c2nc3cc(F)c(F)cc3n2Cc2ncc(Cl)cn2)CCC1(F)F` [Example 17, (3R)-1-(1-((5-chloro-2-pyrimidinyl)methyl)-5,6-difluoro-1H-benzimidazol-2-yl)-4,4-difluoro-3-piperidinamine], for which the IC50 was 0.6 nM.

Regarding `N[C@@H]1CN(c2nc3cc(F)c(F)cc3n2Cc2ncc(Cl)cn2)CC[C@H]1F` [Example 18, (3R,4R)-1-(1-((5-chloro-2-pyrimidinyl)methyl)-5,6-difluoro-1H-benzimidazol-2-yl)-4-fluoro-3-piperidinamine], the IC50 stood at 1.2 nM.

`COc1cnc(Cn2c(N3CC[C@@H](F)[C@H](N)C3)nc3cc(F)c(F)cc32)nc1` [Example 19, (3R,4R)-1-(5,6-difluoro-1-((5-methoxy-2-pyrimidinyl)methyl)-1H-benzimidazol-2-yl)-4-fluoro-3-piperidinamine]: the IC50 was determined as 1.2 nM.

For `N#Cc1cccc(Cn2c(N3CC[C@@H](F)[C@H](N)C3)nc3cc(F)c(F)cc32)n1` [Example 20, 6-((2-((3R,4R)-3-amino-4-fluoro-1-piperidinyl)-5,6-difluoro-1H-benzimidazol-1-yl)methyl)-2-pyridinecarbonitrile], the IC50 worked out at 1.8 nM.

The record behind these values is patent US12492185B2, “Benzimidazole derivatives and their uses” (Teijin Pharma Limited, priority 2019, dated 2025).
